From ChEMBL document CHEMBL4804286, “3-amino-4-(4-(4 (dimethylcarbamoyl) phenyl)-1,4-diazepan-1-yl) thieno [2,3-b] pyridine-2-carboxamide for use in cancer therapy and formulations comprising the same” (2020)
“And” between values parts separate entries of the source, which are not always exact repeats. Equal values may be shown once.

Columns and labels:
Design in all cases: scale not given: the % may be the effect or the level left
[1] = molecular target: Phosphorylase b kinase gamma catalytic chain, liver/testis isoform (Homo sapiens) (UniProt P15735); test: Inhibition of human PHKG2 assessed as percent of control at 2000 nM by KINOMEscan assay relative to control
[2] = molecular target: Dual specificity mitogen-activated protein kinase kinase 5 (Homo sapiens) (UniProt Q13163); test: Inhibition of human MEK5 assessed as percent of control at 2000 nM by KINOMEscan assay relative to control
[3] = molecular target: Mitogen-activated protein kinase kinase kinase 11 (Homo sapiens) (UniProt Q16584); test: Inhibition of human MLK3 assessed as percent of control at 2000 nM by KINOMEscan assay relative to control
[4] = tested on: Receptor-type tyrosine-protein kinase FLT3 (Homo sapiens), P36888 [UNDEFINED MUTATION]; test: Inhibition of human FLT3 ITD/D835V double mutant assessed as percent of control at 2000 nM by KINOMEscan assay relative to control; conditions: INHIBITOR
[5] = tested on: Receptor-type tyrosine-protein kinase FLT3 (Homo sapiens), P36888 [D835H]; test: Inhibition of human FLT3 D835H mutant assessed as percent of control at 2000 nM by KINOMEscan assay relative to control
[6] = molecular target: Serine/threonine-protein kinase tousled-like 1 (Homo sapiens) (UniProt Q9UKI8); test: Inhibition of human TLK1 assessed as percent of control at 2000 nM by KINOMEscan assay relative to control
[7] = molecular target: Serine/threonine-protein kinase pim-3 (Homo sapiens) (UniProt Q86V86); test: Inhibition of human PIM3 assessed as percent of control at 2000 nM by KINOMEscan assay relative to control
[8] = molecular target: Calcium/calmodulin-dependent protein kinase type IV (Homo sapiens) (UniProt Q16566); test: Inhibition of human CAMK4 assessed as percent of control at 2000 nM by KINOMEscan assay relative to control
[9] = molecular target: Mitogen-activated protein kinase kinase kinase 4 (Homo sapiens) (UniProt Q9Y6R4); test: Inhibition of human MAP3K4 assessed as percent of control at 2000 nM by KINOMEscan assay relative to control
[10] = molecular target: BMP-2-inducible protein kinase (Homo sapiens) (UniProt Q9NSY1); test: Inhibition of human BIKE assessed as percent of control at 2000 nM by KINOMEscan assay relative to control
[11] = molecular target: Cyclin-dependent kinase 2 homolog (Plasmodium falciparum (isolate K1 / Thailand)) (UniProt Q07785); test: Inhibition of Plasmodium falciparum PFPK5 assessed as percent of control at 2000 nM by KINOMEscan assay relative to control
[12] = molecular target: Serine/threonine-protein kinase 10 (Homo sapiens) (UniProt O94804); test: Inhibition of human LOK assessed as percent of control at 2000 nM by KINOMEscan assay relative to control
[13] = molecular target: Tyrosine-protein kinase Lck (Homo sapiens) (UniProt P06239); test: Inhibition of human LCK assessed as percent of control at 2000 nM by KINOMEscan assay relative to control
[14] = molecular target: Calcium/calmodulin-dependent protein kinase type II subunit delta (Homo sapiens) (UniProt Q13557); test: Inhibition of human CAMK2D assessed as percent of control at 2000 nM by KINOMEscan assay relative to control
[15] = molecular target: RAC-beta serine/threonine-protein kinase (Homo sapiens) (UniProt P31751); test: Inhibition of human AKT2 assessed as percent of control at 2000 nM by KINOMEscan assay relative to control
[16] = molecular target: Homeodomain-interacting protein kinase 2 (Homo sapiens) (UniProt Q9H2X6); test: Inhibition of human HIPK2 assessed as percent of control at 2000 nM by KINOMEscan assay relative to control
[17] = molecular target: Serine/threonine-protein kinase D1 (Homo sapiens) (UniProt Q15139); test: Inhibition of human PRKD1 assessed as percent of control at 2000 nM by KINOMEscan assay relative to control
[18] = molecular target: Ephrin type-A receptor 5 (Homo sapiens) (UniProt P54756); test: Inhibition of human EPHA5 assessed as percent of control at 2000 nM by KINOMEscan assay relative to control
[19] = molecular target: MAP/microtubule affinity-regulating kinase 3 (Homo sapiens) (UniProt P27448); test: Inhibition of human MARK3 assessed as percent of control at 2000 nM by KINOMEscan assay relative to control
[20] = molecular target: cGMP-dependent protein kinase 2 (Homo sapiens) (UniProt Q13237); test: Inhibition of human PRKG2 assessed as percent of control at 2000 nM by KINOMEscan assay relative to control
[21] = molecular target: Ribosomal protein S6 kinase alpha-2 (Homo sapiens) (UniProt Q15349); test: Inhibition of human N-terminal RSK3 kinase domain 1 assessed as percent of control at 2000 nM by KINOMEscan assay relative to control
[22] = molecular target: Serine/threonine-protein kinase PLK3 (Homo sapiens) (UniProt Q9H4B4); test: Inhibition of human PLK3 assessed as percent of control at 2000 nM by KINOMEscan assay relative to control
[23] = molecular target: Serine/threonine-protein kinase Sgk3 (Homo sapiens) (UniProt Q96BR1); test: Inhibition of human SGK3 assessed as percent of control at 2000 nM by KINOMEscan assay relative to control
[24] = molecular target: Casein kinase I isoform epsilon (Homo sapiens) (UniProt P49674); test: Inhibition of human CSNK1E assessed as percent of control at 2000 nM by KINOMEscan assay relative to control; conditions: INHIBITOR
[25] = molecular target: Citron Rho-interacting kinase (Homo sapiens) (UniProt O14578); test: Inhibition of human CIT assessed as percent of control at 2000 nM by KINOMEscan assay relative to control
[26] = molecular target: Phosphatidylinositol 4-kinase beta (Homo sapiens) (UniProt Q9UBF8); test: Inhibition of human PIK4CB assessed as percent of control at 2000 nM by KINOMEscan assay relative to control
[27] = molecular target: Serine/threonine-protein kinase Nek4 (Homo sapiens) (UniProt P51957); test: Inhibition of human NEK4 assessed as percent of control at 2000 nM by KINOMEscan assay relative to control
[28] = molecular target: Casein kinase I isoform gamma-1 (Homo sapiens) (UniProt Q9HCP0); test: Inhibition of human CSNK1G1 assessed as percent of control at 2000 nM by KINOMEscan assay relative to control
[29] = molecular target: Serine/threonine-protein kinase MRCK gamma (Homo sapiens) (UniProt Q6DT37); test: Inhibition of human DMPK2 assessed as percent of control at 2000 nM by KINOMEscan assay relative to control
[30] = molecular target: Mitogen-activated protein kinase 10 (Homo sapiens) (UniProt P53779); test: Inhibition of human JNK3 assessed as percent of control at 2000 nM by KINOMEscan assay relative to control

Chain of Calcium/calmodulin-dependent protein kinase type IV (Homo sapiens) (Q16566 whole entry): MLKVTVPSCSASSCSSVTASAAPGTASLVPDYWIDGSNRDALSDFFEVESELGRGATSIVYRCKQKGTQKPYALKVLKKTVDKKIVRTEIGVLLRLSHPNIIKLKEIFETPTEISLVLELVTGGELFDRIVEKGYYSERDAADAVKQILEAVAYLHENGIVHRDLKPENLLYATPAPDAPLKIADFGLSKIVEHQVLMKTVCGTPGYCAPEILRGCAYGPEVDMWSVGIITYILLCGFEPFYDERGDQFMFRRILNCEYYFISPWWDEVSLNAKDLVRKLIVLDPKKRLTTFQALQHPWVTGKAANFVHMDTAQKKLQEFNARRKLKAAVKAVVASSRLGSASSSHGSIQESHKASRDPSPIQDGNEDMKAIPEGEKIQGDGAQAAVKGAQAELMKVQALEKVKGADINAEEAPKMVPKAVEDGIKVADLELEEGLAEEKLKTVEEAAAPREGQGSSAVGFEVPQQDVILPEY
Chain of RAC-beta serine/threonine-protein kinase (Homo sapiens) (P31751 whole entry): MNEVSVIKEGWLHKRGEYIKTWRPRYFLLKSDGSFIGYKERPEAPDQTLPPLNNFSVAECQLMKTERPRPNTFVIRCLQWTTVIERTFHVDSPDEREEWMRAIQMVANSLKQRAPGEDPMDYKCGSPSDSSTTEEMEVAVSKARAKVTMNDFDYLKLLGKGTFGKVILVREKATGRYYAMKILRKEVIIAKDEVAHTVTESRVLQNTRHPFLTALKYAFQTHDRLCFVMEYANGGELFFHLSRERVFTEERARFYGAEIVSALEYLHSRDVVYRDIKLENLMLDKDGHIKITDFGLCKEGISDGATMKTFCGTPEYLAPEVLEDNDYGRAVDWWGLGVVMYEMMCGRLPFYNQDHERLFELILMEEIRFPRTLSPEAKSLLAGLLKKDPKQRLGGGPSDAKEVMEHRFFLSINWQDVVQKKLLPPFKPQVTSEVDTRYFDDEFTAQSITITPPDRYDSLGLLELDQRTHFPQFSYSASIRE
Chain of Tyrosine-protein kinase Lck (Homo sapiens) (P06239 2-509 limits assumed): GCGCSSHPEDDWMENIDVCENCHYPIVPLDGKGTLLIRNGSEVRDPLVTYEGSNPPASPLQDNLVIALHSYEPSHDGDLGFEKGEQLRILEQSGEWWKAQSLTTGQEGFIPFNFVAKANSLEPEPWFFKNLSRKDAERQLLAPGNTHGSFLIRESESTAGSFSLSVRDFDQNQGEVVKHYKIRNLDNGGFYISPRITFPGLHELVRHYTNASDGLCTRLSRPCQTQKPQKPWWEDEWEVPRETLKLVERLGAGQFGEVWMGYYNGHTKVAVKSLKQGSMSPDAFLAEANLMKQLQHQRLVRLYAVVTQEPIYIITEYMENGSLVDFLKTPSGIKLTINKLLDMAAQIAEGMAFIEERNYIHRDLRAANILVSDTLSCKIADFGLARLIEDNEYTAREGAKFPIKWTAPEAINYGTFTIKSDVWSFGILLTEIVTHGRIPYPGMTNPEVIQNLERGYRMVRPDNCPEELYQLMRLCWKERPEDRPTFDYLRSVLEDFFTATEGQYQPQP
Chain of Homeodomain-interacting protein kinase 2 (Homo sapiens) (Q9H2X6 whole entry, looked up): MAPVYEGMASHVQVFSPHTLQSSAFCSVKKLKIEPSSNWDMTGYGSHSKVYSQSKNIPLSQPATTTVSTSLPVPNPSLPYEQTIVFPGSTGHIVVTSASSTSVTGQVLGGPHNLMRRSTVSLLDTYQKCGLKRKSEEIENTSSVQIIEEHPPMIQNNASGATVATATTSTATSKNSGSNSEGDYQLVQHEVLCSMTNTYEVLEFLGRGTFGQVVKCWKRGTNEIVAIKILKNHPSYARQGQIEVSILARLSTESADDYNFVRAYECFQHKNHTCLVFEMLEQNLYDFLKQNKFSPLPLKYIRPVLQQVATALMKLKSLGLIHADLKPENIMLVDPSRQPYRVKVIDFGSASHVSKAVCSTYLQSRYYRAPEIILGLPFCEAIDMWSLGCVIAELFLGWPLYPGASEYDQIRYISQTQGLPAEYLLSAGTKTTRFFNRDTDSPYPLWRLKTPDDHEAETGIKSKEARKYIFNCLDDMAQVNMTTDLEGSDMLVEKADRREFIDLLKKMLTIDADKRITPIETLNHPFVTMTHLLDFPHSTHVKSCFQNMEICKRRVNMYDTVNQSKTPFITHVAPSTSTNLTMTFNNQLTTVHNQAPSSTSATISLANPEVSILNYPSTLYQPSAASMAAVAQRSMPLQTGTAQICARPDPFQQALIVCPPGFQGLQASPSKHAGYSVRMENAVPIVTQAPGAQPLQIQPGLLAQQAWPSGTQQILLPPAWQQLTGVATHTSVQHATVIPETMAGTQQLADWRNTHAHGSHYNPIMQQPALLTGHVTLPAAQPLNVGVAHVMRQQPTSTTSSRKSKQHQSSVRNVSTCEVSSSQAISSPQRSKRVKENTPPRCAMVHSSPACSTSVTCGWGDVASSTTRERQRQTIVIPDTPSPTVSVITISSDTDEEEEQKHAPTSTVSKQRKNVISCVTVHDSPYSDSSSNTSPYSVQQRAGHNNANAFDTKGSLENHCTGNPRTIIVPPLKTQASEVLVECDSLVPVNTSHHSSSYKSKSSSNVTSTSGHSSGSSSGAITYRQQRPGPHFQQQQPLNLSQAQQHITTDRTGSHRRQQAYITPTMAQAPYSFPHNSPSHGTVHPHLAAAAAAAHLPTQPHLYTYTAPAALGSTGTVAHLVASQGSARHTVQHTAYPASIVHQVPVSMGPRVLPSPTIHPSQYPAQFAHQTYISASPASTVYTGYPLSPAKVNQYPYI
Chain of Casein kinase I isoform gamma-1 (Homo sapiens) (Q9HCP0 whole entry, looked up, canonical isoform): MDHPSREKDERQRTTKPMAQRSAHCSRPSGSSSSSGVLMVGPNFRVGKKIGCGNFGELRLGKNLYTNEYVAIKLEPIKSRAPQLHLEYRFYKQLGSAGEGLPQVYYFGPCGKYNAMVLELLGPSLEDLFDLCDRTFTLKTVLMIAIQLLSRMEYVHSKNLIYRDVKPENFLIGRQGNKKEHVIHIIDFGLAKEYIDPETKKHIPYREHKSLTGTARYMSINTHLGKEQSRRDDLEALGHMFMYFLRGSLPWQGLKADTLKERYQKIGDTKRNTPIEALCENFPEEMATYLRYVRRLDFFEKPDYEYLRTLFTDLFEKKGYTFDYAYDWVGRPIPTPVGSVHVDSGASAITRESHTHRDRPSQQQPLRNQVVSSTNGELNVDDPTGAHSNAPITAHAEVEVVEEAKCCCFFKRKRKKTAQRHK
Chain of BMP-2-inducible protein kinase (Homo sapiens) (Q9NSY1 whole entry, looked up): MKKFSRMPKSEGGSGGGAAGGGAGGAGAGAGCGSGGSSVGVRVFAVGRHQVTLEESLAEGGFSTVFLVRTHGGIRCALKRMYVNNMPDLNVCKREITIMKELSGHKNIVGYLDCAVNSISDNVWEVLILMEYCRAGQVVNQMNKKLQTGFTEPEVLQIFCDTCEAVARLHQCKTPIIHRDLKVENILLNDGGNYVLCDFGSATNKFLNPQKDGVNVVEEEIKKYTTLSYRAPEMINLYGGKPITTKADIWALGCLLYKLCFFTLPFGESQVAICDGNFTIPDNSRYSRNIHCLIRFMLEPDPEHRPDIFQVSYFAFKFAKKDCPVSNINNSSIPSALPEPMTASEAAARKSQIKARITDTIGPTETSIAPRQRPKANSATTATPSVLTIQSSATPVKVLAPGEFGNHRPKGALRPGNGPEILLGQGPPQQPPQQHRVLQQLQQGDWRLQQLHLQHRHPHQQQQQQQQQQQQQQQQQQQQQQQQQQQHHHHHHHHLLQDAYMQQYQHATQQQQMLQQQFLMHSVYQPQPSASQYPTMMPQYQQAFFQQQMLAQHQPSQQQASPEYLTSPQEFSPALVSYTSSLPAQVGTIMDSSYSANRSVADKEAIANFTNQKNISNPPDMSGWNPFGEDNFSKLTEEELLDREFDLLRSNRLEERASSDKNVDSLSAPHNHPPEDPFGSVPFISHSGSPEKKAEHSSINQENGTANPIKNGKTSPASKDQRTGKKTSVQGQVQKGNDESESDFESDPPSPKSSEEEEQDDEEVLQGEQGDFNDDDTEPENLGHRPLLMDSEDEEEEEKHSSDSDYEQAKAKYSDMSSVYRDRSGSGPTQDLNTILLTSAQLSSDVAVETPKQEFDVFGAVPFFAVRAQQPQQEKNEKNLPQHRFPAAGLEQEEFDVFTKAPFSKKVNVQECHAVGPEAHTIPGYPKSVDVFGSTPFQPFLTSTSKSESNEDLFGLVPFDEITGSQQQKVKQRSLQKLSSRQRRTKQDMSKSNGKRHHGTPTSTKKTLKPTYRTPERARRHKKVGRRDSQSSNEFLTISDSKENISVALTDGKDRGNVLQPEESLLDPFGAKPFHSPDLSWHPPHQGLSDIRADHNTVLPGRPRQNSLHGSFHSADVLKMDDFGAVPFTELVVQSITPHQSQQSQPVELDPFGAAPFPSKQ
Chain of Ribosomal protein S6 kinase alpha-2 (Homo sapiens) (Q15349 whole entry, the tested form may be a part): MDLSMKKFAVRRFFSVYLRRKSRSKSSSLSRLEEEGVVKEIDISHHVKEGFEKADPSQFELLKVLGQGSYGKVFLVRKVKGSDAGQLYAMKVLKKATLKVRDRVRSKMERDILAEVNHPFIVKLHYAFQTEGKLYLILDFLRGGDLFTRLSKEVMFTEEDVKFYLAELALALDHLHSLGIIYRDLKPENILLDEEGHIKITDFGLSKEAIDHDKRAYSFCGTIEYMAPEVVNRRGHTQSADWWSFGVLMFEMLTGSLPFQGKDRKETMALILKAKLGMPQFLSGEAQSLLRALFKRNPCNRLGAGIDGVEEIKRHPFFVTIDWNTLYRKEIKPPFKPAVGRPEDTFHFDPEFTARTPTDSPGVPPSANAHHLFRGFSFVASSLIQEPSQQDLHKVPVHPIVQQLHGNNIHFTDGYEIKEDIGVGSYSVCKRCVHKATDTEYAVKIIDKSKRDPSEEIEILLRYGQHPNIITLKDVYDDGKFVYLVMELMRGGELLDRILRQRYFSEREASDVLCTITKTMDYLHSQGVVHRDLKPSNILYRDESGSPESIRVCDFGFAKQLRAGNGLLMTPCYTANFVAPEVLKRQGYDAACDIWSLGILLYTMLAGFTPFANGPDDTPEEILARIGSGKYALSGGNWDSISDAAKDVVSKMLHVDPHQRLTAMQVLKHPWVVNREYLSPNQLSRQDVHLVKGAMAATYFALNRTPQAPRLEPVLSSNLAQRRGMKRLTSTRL

With CN(C)C(=O)c1ccc(N2CCCN(c3ccnc4sc(C(N)=O)c(N)c34)CC2)cc1 the Activity [1] was 86% and 83%, the Activity [2] was 86% and 65% and the Activity [3] was 99% and 100%. The Activity [4] was 41% and 34%, the Activity [5] was 63% and 76% and the Activity [6] was 97% and 85%. For the same molecule, the Activity [7] was 89% and 98%, the Activity [8] was 96% and 79% and the Activity [9] was 90% and 100%. For the same molecule, the Activity [10] was 100% and 96%, the Activity [11] was 68% and 67% and the Activity [12] was 84% and 69%. The Activity [13] was 91% and 100%, the Activity [14] was 99% and 92% and the Activity [15] was 86% and 99%. The Activity [16] was 100% and 81%, the Activity [17] was 88% and 92% and the Activity [18] was 89% and 96%. For the same molecule, the Activity [19] was 98% and 100%, the Activity [20] was 98% and 90% and the Activity [21] was 99% and 77%. The Activity [22] was 86% and 90%, the Activity [23] was 79% and 80% and the Activity [24] was 25% and 12%. For the same molecule, the Activity [25] was 51% and 65%, the Activity [26] was 65% and the Activity ([26]; INHIBITOR) was 33%. For the same molecule, the Activity [27] was 100% and 95%, the Activity [28] was 90% and 80% and the Activity [29] was 93% and 94%. The Activity [30] was 91% and the Activity ([30]; INHIBITOR) was 44%.
